Structures are written as SMILES. Where two headings read alike, the source gives them in different places. *1 amine or outer side, *2 acyl side, *3 side chain or, on linkers, in order; H or OH if unused. Where a SMILES comes first, the peptide text is derived from it. Bridges are numbered along the chain shown (N, C = ends). [ ]: non-standard residue; d: D form. The star is where a group is joined. ξ: configuration not given here. Phe(4-COOH) = N[C@@H](Cc1ccc(C(=O)O)cc1)C(=O)O; X5 = O=C([C@H](Cc1ccc2ncccc2c1)N[*:1])[*:2]; Bip = N[C@@H](Cc1ccc(-c2ccccc2)cc1)C(=O)O; Phe(3-OMe) = COc1cccc(C[C@H](N)C(=O)O)c1; Phe(3-Me) = Cc1cccc(C[C@H](N)C(=O)O)c1; Val(3-OH) = CC(C)(O)[C@H](N)C(=O)O; 4Pal = N[C@@H](Cc1ccncc1)C(=O)O; Cha = N[C@@H](CC1CCCCC1)C(=O)O; Thr(3ξ) = CC(O)[C@H](N)C(=O)O; Carboxymethyl = O=C(O)C*; Orn = NCCC[C@H](N)C(=O)O; Pra = C#CC[C@H](N)C(=O)O; Dab = NCC[C@H](N)C(=O)O; Dap = NC[C@H](N)C(=O)O

One may read the IC50 as the concentration at which inhibition is half-maximal.

In this assay the target is T1, human PD-1 / PD-L1-Ig binding on Jurkat cell line over-expressing human PD-1 (Jurkat-PD-1) (Homo sapiens, UniProt Q15116).
T1 construct: expressed in transfected cells; host or cells: Jurkat
The assay can be described thus: Jurkat-PD-1 Cell Binding High-Content Screening Assay (CBA). The assay is classed as cell-based. The conditions noted are these: PE-labeled PD-L1-Ig 20 nM final. In a few lines:
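Compounds were preincubated with Jurkat-hPD-1 cells in DMEM plus 10% fetal calf serum for 2 h at 37° C. Phycoerythrin-labeled PD-L1-Ig (20 nM final) was then added for 1 hour. Cells were fixed in 4% paraformaldehyde with Hoechst 33342, and bound fluorescence was quantified by high-content imaging.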

[1] abbreviates: Jurkat-PD-1 cells, read-out: Jurkat HPD1_PDL1 IC50.

T1 sequence (Q15116 25-288): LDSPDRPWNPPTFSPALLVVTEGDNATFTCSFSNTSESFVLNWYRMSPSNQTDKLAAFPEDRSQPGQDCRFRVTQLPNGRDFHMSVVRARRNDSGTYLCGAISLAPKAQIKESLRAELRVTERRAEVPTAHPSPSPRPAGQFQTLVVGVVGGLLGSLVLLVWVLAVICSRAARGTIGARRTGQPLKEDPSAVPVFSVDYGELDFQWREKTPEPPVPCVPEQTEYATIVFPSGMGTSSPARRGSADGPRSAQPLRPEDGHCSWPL

Consider `C#CC[C@H](NC(=O)[C@H](CCN)NC(=O)[C@@H]1CSCC(=O)N[C@@H](CN)C(=O)N[C@@H](Cc2ccc(C(=O)O)cc2)C(=O)N[C@@H](CC(=O)O)C(=O)N[C@@H](Cc2cccc(C)c2)C(=O)N[C@@H](Cc2ccc(C(=O)O)cc2)C(=O)N[C@@H](Cc2ccc(-c3ccccc3)cc2)C(=O)N[C@@H](Cc2ccc(C(=O)O)cc2)C(=O)N[C@@H](CCCN)C(=O)N[C@H](CC(C)C)C(=O)N[C@@H](CCN)C(=O)N[C@@H](CC2CCCCC2)C(=O)N[C@@H](C(C)(C)O)C(=O)N[C@@H](Cc2cnc[nH]2)C(=O)N1)C(N)=O` [Compound 1848] ({CH2CO}-[Dap][Phe(4-COOH)]D[Phe(3-Me)][Phe(4-COOH)][Bip][Phe(4-COOH)][Orn][dL][Dab][Cha][Val(3-OH)]HC[Dab][Pra]-NH2; thioether N-14), for which, under setting [1], the IC50 came out at 8.3 nM.
For `CC(C)C[C@@H]1NC(=O)[C@H](Cc2c[nH]c3ccccc23)NC(=O)[C@H](CC(=O)O)NC(=O)[C@H](Cc2ccc(O)cc2)NC(=O)[C@H](Cc2ccccc2)NC(=O)CSC[C@@H](C(=O)NCC(N)=O)NC(=O)[C@H](CO)NC(=O)[C@H](C(C)C)NC(=O)[C@H](CC(C)C)NC(=O)[C@H](CC(N)=O)NC(=O)[C@@H](CC(C)C)NC(=O)[C@H](CCCN)NC(=O)[C@H](C(C)C)NC(=O)[C@H](Cc2ccc(-c3ccccc3)cc2)NC1=O` [Compound 1067] ({CH2CO}-FYDWL[Bip]V[Orn][dL]NLVSCG-NH2; thioether N-14), the IC50 under setting [1] turned out to be 22.2 nM.
Still for that read-out and setting: next, `Cc1cccc(C[C@@H]2NC(=O)[C@H](CC(=O)O)NC(=O)[C@H](Cc3ccc(OCC(=O)O)cc3)NC(=O)[C@H](C(C)(C)O)NC(=O)CSC[C@@H](C(=O)N[C@@H](CCN)C(N)=O)NC(=O)[C@H](CO)NC(=O)[C@H](C(C)(C)O)NC(=O)[C@H](CC3CCCCC3)NC(=O)[C@H](CCN)NC(=O)[C@@H](CC(C)C)NC(=O)[C@H](CCCN)NC(=O)[C@H](Cc3ccc(OCC(=O)O)cc3)NC(=O)[C@H](Cc3ccc(-c4ccccc4)cc3)NC(=O)[C@H](Cc3ccc(OCC(=O)O)cc3)NC2=O)c1` [Compound 2058] ({CH2CO}-[Val(3-OH)]Y(Carboxymethyl)D[Phe(3-Me)]Y(Carboxymethyl)[Bip]Y(Carboxymethyl)[Orn][dL][Dab][Cha][Val(3-OH)]SC[Dab]-NH2; thioether N-14): 25.2 nM; `COc1cccc(C[C@@H]2NC(=O)[C@H](CC(=O)O)NC(=O)[C@H](Cc3ccc(OCC(=O)O)cc3)NC(=O)[C@H](Cc3ccncc3)NC(=O)CSC[C@@H](C(=O)N[C@@H](C)C(N)=O)NC(=O)[C@H]([C@@H](C)O)NC(=O)[C@H](C(C)C)NC(=O)[C@H](CC(C)C)NC(=O)[C@H](CCN)NC(=O)[C@@H](CC(C)C)NC(=O)[C@H](CCCN)NC(=O)[C@H](C(C)C)NC(=O)[C@H](Cc3ccc(-c4ccccc4)cc3)NC(=O)[C@H](C(C)C)NC2=O)c1` [Compound 1188] ({CH2CO}-[4Pal]Y(Carboxymethyl)D[Phe(3-OMe)]V[Bip]V[Orn][dL][Dab]LVTCA-NH2; thioether N-14): 7.9 nM.
Turning to `CC(C)C[C@H]1NC(=O)[C@H](CCCN)NC(=O)[C@H](C(C)C)NC(=O)[C@H](Cc2ccc(-c3ccccc3)cc2)NC(=O)[C@H](C(C)C)NC(=O)[C@H](Cc2c[nH]c3ccccc23)NC(=O)[C@H](CC(=O)O)NC(=O)[C@H](Cc2ccc(OCC(=O)O)cc2)NC(=O)[C@H](C(C)O)NC(=O)CSC[C@@H](C(=O)N[C@@H](CCN)C(N)=O)NC(=O)[C@H](C(C)O)NC(=O)[C@H](C(C)(C)O)NC(=O)[C@H](CC2CCCCC2)NC(=O)[C@H](CCN)NC1=O` (stereo partly drawn) [Compound 2631] ({CH2CO}-[Thr(3ξ)]Y(Carboxymethyl)DWV[Bip]V[Orn][dL][Dab][Cha][Val(3-OH)][Thr(3ξ)]C[Dab]-NH2; thioether N-14), the IC50 under setting [1] worked out at 8.5 nM.
`CC(C)C[C@@H]1NC(=O)[C@H](CCN)NC(=O)[C@@H](CC(C)C)NC(=O)[C@H](CCCN)NC(=O)[C@H](CCCNC(=N)N)NC(=O)[C@H](Cc2ccc(-c3ccccc3)cc2)NC(=O)[C@H](C(C)C)NC(=O)[C@H](Cc2c[nH]c3ccccc23)NC(=O)[C@H](CC(=O)O)NC(=O)[C@H](Cc2ccncc2)NC(=O)[C@H](CN)NC(=O)CSC[C@@H](C(=O)N[C@@H](C)C(N)=O)NC(=O)[C@H]([C@@H](C)O)NC(=O)[C@H](C(C)C)NC1=O` [Compound 1244] ({CH2CO}-[Dap][4Pal]DWV[Bip]R[Orn][dL][Dab]LVTCA-NH2; thioether N-14): the IC50 under setting [1] is 22.3 nM.
On the same count and under the same terms, the value for `CC(C)C[C@H]1NC(=O)[C@H](CCCN)NC(=O)[C@H](CCC(=O)O)NC(=O)[C@H](Cc2ccc(-c3ccccc3)cc2)NC(=O)[C@H](C(C)C)NC(=O)[C@H](Cc2ccc3ncccc3c2)NC(=O)[C@H](CC(=O)O)NC(=O)[C@H](Cc2ccc(OCC(=O)O)cc2)NC(=O)[C@H](CN)NC(=O)CSC[C@@H](C(=O)N[C@@H](C)C(N)=O)NC(=O)[C@H]([C@@H](C)O)NC(=O)[C@H](C(C)C)NC(=O)[C@H](CC2CCCCC2)NC(=O)[C@H](CCN)NC1=O` [Compound 2145] ({CH2CO}-[Dap]Y(Carboxymethyl)D[X5]V[Bip]E[Orn][dL][Dab][Cha]VTCA-NH2; thioether N-14) was 469 nM.
Turning to `CC(C)C[C@H]1NC(=O)[C@H](CCCN)NC(=O)[C@H](C(C)C)NC(=O)[C@H](Cc2ccc(-c3ccccc3)cc2)NC(=O)[C@H](C(C)C)NC(=O)[C@H](Cc2c[nH]c3ccccc23)NC(=O)[C@H](CC(=O)O)NC(=O)[C@H](Cc2ccc(C(=O)O)cc2)NC(=O)[C@H](Cc2ccc(OCC(=O)O)cc2)NC(=O)CSC[C@@H](C(=O)N[C@@H](CCN)C(=O)N[C@@H](CCCNC(=N)N)C(=O)O)NC(=O)[C@H](CCCN)NC(=O)[C@H](C(C)C)NC(=O)[C@H](CC2CCCCC2)NC(=O)[C@H](CCN)NC1=O` [Compound 2587] ({CH2CO}-Y(Carboxymethyl)[Phe(4-COOH)]DWV[Bip]V[Orn][dL][Dab][Cha]V[Orn]C[Dab]R-OH; thioether N-14), the IC50 (Jurkat HPD1_PDL1 IC50, Jurkat-PD-1 cells) amounted to 18.4 nM.
Take `CC(C)C[C@@H]1NC(=O)[C@H](CCN)NC(=O)[C@@H](CC(C)C)NC(=O)[C@@H](CC(=O)O)NC(=O)[C@H](C(C)C)NC(=O)[C@H](Cc2ccc(-c3ccccc3)cc2)NC(=O)[C@H](C(C)C)NC(=O)[C@H](Cc2c[nH]c3ccccc23)NC(=O)[C@H](CC(=O)O)NC(=O)[C@H](Cc2ccc(O)cc2)NC(=O)[C@H](CC(N)=O)NC(=O)CSC[C@@H](C(=O)N[C@@H](C)C(N)=O)NC(=O)[C@H]([C@@H](C)O)NC(=O)[C@H](C(C)C)NC1=O` [Compound 1021] ({CH2CO}-NYDWV[Bip]V[dD][dL][Dab]LVTCA-NH2; thioether N-14): under setting [1], the IC50 was determined as 26.8 nM.
As for `CC(C)C[C@H]1NC(=O)[C@H](CCCN)NC(=O)[C@H](C(C)C)NC(=O)[C@H](Cc2ccc(-c3ccccc3)cc2)NC(=O)[C@H](C(C)C)NC(=O)[C@H](Cc2c[nH]c3ccccc23)NC(=O)[C@H](CC(=O)O)NC(=O)[C@H](Cc2ccc(O)cc2)NC(=O)[C@H](CN)NC(=O)CSC[C@@H](C(=O)N[C@@H](C)C(N)=O)NC(=O)[C@H]([C@@H](C)O)NC(=O)[C@H](C(C)C)NC(=O)[C@H](CC2CCCCC2)NC(=O)[C@H](CCN)NC1=O` [Compound 1172], under setting [1], the IC50 was determined as 6.4 nM.

The values are drawn from patent US20250163104A1, “MACROCYCLIC IMMUNOMODULATORS” (priority 2021, published 2025).
